The subject of assay [1] is Gram-positive bacteria. To be noted: some Gram-positive bacteria; cited from earlier work.
The subject of assay [2] is Gram-negative bacteria. Particulars: cited from earlier work.
The subject of assay [3] is Propionibacterium acnes (DSM 1897). Briefly: Antibacterial activity against causative agent of acne vulgaris. In kind it is cell-based.
Assay [4] deals with Xanthomonas campestris (DSM 2405). The format is cell-based.
For assay [5], the system named is Phytophthora infestans. The format is cell-based. To be noted: Phytophthora infestans (Isolate), 48 hours at 20° C. in the dark.
Assay [6] relates to intestinal tumor cell line HT29. The assay is described as follows: CellTiter-Blue cell viability assay. In kind it is cell-based, human. The text has this: (§1) To determine the proliferation and cytotoxicity in respect of the liver tumor cell line HepG2 and the intestinal tumor cell line HT29, the effect on the metabolic activity of the cells was studied by means of the CellTiter-Blue® cell viability assay as described by O'Brien et al. (2000 Investigation of the alamar blue (resazurin) fluorescent dye for the assessment of mammalian cell cytotoxicity. European Journal of Biochemistry 267: 5421-6).

Assay [7] has as its system liver tumor cell line HepG2. Briefly: CellTiter-Blue cell viability assay. In kind it is cell-based, human.
Source text: as §1
A general note: Resazurin is reduced to fluorescent resorufin, in cell work by metabolically active cells.

The subject of assay [8] is GXF251L (gastric tumor). The assay is described as follows: Antiproliferative activity, propidium iodide fluorescence assay (Dengler et al. 1995). The format is cell-based, human.
For assay [9], the system named is LXF529L (lung tumor). The description is as above. The format is cell-based, human.
The test system of assay [10] is MAXF401NL (breast cancer). The description is as above. In kind it is cell-based, human.
Assay [11] has as its system PAXF1657L (pancreatic tumor). The assay is described as above. In kind it is cell-based, human.
Assay [12] deals with Bacillus subtilis (DSM 347). Briefly: Antibacterial growth inhibition (Lang et al. 2007).
For assay [13], the system named is Staphylococcus lentus (DSM 6672). Briefly: Antibacterial growth inhibition (Lang et al. 2007).
The test system of assay [14] is Staphylococcus aureus (ATCC 12600). Briefly: Antibacterial test, clinically relevant strains (Sahly et al. 2003).
For assay [15], the system named is Staphylococcus aureus (ATCC 33593, methicillin-resistant). The description is as above.
Assay [16] concerns Staphylococcus epidermidis (Isolate, biofilm former). The description is as above.
Assay [17] deals with Pseudomonas aeruginosa (ATCC 10145). The description is as above. To be noted: biofilm former.

`Cc1cc2cc(O)c3c(c2c(O[C@@H]2C[C@H](N(C)C)[C@@H](O)[C@@H](C)O2)c1[C@@H]1C[C@H](N(C)C)[C@@H](O)[C@H](C)O1)C(=O)c1cccc(O)c1C3=O` [benzanthrin A]: the “activity against Gram-positive bacteria” value in [1] is “active against some Gram-positive bacteria”. Besides, the “activity against Gram-negative bacteria” value in [2] is recorded as “not against Gram-negative bacteria”.
On to `Cc1cc2cc(O)c3c(c2c(O[C@@H]2C[C@H](N(C)C)[C@H](O)[C@@H](C)O2)c1[C@@H]1C[C@H](N(C)C)[C@@H](O)[C@H](C)O1)C(=O)c1cccc(O)c1C3=O` [benzanthrin B], for which the “activity against Gram-positive bacteria” value in assay [1] is on record as “active against some Gram-positive bacteria”. Moreover, the “activity against Gram-negative bacteria” value in [2] is reported as “not against Gram-negative bacteria”.
Consider mayamycin, for which the IC50 in assay [3] came out at 31200 nM; in assay [4], 30000 nM; in assay [5] it was 15200 nM; in assay [6] it was 300 nM; in [7], 200 nM; in assay [8], 200 nM. In addition, the IC50 was found to be 160 nM in assay [9]; 290 nM in [10]; 150 nM in [11]; 8000 nM in assay [12]; 8000 nM in [13]; 2500 nM in assay [14]. Further, the IC50 in assay [15] was found to be 1250 nM; in [16] it was 310 nM; in assay [17] it was 2500 nM.

Broadly, the IC50 is the concentration at which inhibition is half-maximal.

Values taken from patent publication US20130045931A1 (priority 2010, published 2013).
